From US20060134719A1, “Novel serine protease” (priority 2002, published 2006)
*: point of attachment. AMC = Cc1cc(=O)oc2cc(N*)ccc12; Boc = CC(C)(C)OC(=O)*; OBn = c1ccc(CO*)cc1

Biological target: T1, signal-FLAG-ARS-SerPD culture supernatant (SEQ ID NO:2 237th to 531st) (Homo sapiens, UniProt Q7Z410)
T1 construct: made in house; host or cells: HEK293-EBNA
T1 sequence (Q7Z410 with tags, fused parts or gaps): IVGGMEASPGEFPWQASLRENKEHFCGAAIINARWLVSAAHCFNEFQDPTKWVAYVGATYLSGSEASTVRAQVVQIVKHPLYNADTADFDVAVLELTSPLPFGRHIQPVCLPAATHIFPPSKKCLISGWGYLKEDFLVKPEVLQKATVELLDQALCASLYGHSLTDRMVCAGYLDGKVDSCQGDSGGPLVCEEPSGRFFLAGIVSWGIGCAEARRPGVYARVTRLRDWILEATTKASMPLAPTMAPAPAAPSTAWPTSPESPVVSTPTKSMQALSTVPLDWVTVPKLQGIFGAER
Test: Enzymatic cleavage of MCA-labeled synthetic peptides by signal-FLAG-ARS-SerPD culture supernatant
Assay type: biochemical
Details: substrate 100 μM in TBS pH 7.5, 37° C.; never obtained with blank vector supernatant
Procedure: The expression plasmids prepared in Examples 3 to 5 were introduced into HEK293-EBNA cell (Invitrogen) using a transfection reagent (FuGENE™6 transfection reagent; Roche) according to the instruction attached thereto. After the introduction of the plasmids, the culture medium was replaced with a serum-free culture medium within 12 to 16 hours and further incubated for another 48 to 60 hours. The culture supernatant was collected and resulting each liquid culture was centrifuged (3000 rpm, 10 minutes) with a centrifuge (Type 8800; Kubota) to obtain culture supernatants. After removing the culture supernatants, the remaining cells were washed with phosphate buffer (PBS; 10 mM sodium phosphate, pH 7.5) and then recovered by scraping from the culture plate by pipetting with phosphate buffer, and centrifuged with a centrifuge (Type 8800; Kubota) at 3000 rpm for 10 minutes. The resulting precipitate was suspended in phosphate buffer, which was defined as the cell fraction. The culture supernatants obtained by the introduction of pCEP-ARSF-FLAG, pCEP-signal-FLAG-ARS-extracellular and pCEP-signal-FLAG-ARS-SerPD are referred to as ARS-FLAG culture supernatant, signal-FLAG-ARS-extracellular culture supernatant, signal-FLAG-ARS-SerPD culture supernatant and signal-FLAG-ARS-SerPDO culture supernatant, respectively.
The method for detecting enzymatic cleavage activity using a synthetic peptide labeled with MCA (4-methyl-coumaryl-7-amide) in the C terminus was according to the method reported in an academic paper (Yasuoka, S. et al., Am. J. Respir. Cell Mol Biol., Vol. 16, 300-308, 1997), unless otherwise described. […] Subsequently, the fluorescence of AMC (7-amino-4-methyl-coumarin) released from the synthetic peptide by enzymatic cleavage was measured at a wavelength of 460 nm for measurement, using an excitation wavelength of 390 nm with a fluorescent plate reader (Fluostar, SLT).

Substance | cleavage activity of synthetic peptide (fluorescence of released AMC)
Boc-Gln-Arg-Arg-{AMC} | showed the cleavage activity
Boc-Phe-Ser-Arg-{AMC} | showed the cleavage activity
Boc-Glu(OBn)-Ala-Arg-{AMC} | showed the cleavage activity
